Among the data in US9096602B2, “Substituted pyrrolo[2,3-B]pyrazines as ATR kinase inhibitors” (Vertex Pharmaceuticals Incorporated, priority 2011, dated 2015) are Ki values, retold here.

Molecules are shown by their SMILES. Where two headings read alike, the source gives them in different places.

For the assay, the target named is T1, ATR kinase (full-length ATR) (Homo sapiens, UniProt Q13535).
T1 construct: Assays were carried out at 25° C. in the presence of 5 nM full-length ATR
Put plainly: ATR Inhibition Assay (radioactive-phosphate incorporation). To be noted: Ki(app), 5 nM full-length ATR, 10 μM ATP, 800 μM target peptide, 25° C., read-out: ATR Inhibition Ki. It counts as biochemical. A digest of the protocol:
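Radiometric 33P filter assay with 5 nM full-length ATR in 50 mM Tris/HCl pH 7.5, 10 mM MgCl2, 1 mM DTT at 25 °C. Final 10 μM [γ-33P]ATP and 800 μM peptide; 10 min compound preincubation, ATP start, stopped at 24 h with phosphoric acid/ATP. Ki(app) from non-linear regression of background-corrected initial rates.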

Where [1] appears, read: given as numeric lower bound without unit.

T1 sequence (Q13535 whole entry): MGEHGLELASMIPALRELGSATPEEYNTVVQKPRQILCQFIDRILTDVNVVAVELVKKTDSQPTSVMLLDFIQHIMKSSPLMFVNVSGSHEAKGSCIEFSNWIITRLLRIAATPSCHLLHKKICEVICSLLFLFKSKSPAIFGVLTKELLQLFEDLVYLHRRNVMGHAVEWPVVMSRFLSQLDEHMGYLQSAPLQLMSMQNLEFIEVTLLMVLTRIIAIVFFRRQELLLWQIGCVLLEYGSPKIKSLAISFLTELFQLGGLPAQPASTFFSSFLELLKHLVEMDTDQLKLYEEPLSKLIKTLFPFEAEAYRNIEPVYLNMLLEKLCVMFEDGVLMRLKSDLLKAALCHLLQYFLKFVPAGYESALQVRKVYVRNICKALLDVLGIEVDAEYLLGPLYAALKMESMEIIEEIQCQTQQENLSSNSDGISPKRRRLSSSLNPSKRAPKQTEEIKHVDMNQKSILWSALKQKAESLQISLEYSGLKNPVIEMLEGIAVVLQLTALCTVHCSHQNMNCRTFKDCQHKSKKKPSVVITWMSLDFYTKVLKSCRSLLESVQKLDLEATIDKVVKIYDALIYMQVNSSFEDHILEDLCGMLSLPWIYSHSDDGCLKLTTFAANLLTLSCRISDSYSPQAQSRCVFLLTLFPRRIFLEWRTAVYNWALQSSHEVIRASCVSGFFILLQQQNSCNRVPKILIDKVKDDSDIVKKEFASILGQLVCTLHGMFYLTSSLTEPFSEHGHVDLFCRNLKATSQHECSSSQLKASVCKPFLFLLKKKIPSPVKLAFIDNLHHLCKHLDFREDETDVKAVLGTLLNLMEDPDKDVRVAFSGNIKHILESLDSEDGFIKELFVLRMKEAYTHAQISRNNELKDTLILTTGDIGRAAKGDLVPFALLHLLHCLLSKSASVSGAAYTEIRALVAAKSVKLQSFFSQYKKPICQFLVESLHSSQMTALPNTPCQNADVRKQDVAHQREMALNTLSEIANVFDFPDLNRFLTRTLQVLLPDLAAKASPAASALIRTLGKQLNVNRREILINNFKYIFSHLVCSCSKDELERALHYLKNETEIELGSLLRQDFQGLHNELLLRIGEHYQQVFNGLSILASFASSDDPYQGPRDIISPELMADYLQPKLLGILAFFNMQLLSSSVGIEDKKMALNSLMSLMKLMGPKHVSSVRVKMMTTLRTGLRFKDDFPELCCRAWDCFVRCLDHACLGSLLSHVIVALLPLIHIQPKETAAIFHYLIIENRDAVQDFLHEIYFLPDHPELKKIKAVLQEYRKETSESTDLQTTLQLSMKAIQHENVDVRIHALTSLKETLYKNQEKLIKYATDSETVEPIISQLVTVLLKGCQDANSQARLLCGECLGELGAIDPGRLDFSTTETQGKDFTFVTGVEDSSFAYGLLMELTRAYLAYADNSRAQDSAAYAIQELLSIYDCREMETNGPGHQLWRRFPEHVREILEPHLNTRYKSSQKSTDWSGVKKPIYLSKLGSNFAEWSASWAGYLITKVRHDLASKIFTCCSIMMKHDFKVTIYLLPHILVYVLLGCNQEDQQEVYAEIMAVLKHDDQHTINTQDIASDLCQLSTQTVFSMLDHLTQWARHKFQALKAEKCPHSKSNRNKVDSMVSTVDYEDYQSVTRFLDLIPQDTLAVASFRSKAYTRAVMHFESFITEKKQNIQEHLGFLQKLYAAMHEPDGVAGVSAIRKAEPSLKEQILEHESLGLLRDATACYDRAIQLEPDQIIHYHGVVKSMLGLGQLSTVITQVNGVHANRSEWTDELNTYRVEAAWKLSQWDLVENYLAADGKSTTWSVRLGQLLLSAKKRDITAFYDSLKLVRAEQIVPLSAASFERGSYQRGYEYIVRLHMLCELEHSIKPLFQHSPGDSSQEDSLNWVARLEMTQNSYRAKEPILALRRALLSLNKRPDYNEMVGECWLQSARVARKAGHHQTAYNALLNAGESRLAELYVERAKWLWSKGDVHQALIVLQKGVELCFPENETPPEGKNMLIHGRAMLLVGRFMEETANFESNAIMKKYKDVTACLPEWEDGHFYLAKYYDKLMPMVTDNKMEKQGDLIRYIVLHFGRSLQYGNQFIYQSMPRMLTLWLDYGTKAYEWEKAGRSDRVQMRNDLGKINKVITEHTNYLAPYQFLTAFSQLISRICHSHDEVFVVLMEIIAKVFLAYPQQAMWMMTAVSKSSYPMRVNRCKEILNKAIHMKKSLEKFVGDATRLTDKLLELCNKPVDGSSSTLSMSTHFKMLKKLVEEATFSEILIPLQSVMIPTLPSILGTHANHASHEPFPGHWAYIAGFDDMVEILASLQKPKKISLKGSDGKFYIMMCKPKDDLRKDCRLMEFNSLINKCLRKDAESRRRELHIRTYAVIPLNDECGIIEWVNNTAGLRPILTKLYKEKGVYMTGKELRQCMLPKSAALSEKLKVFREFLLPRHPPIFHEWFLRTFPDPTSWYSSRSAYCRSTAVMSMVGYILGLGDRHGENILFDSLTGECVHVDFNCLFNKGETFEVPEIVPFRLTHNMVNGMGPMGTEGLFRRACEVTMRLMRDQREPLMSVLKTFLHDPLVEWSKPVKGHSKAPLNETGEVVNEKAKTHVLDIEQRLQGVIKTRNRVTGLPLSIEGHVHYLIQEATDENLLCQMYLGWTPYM

As to `CC(C)S(=O)(=O)c1ccc(-c2cnc3[nH]cc(C(=O)Nc4cccc(C#N)c4)c3n2)cc1` [Compound I-13, N-(3-cyanophenyl)-2-(4-isopropylsulfonylphenyl)-5H-pyrrolo[2,3-b]pyrazine-7-carboxamide], the Ki (class symbols) fell in the range of 100 to 500 nM.
`CC(C)S(=O)(=O)c1ccc(-c2cnc3[nH]cc(C(=O)N4CCCN(C(=O)OC(C)(C)C)CC4)c3n2)cc1` [Compound I-134, tert-butyl 4-[2-(4-isopropylsulfonylphenyl)-5H-pyrrolo[2,3-b]pyrazine-7-carbonyl]-1,4-diazepane-1-carboxylate]: under setting [1], the Ki was more than 40 nM.
Regarding `CCN(C(=O)c1c[nH]c2ncc(-c3ccc(S(=O)(=O)C(C)C)cc3)nc12)C1CCCCC1` [Compound I-95, N-cyclohexyl-N-ethyl-2-(4-isopropylsulfonylphenyl)-5H-pyrrolo[2,3-b]pyrazine-7-carboxamide], under “class symbols”, the Ki is 500 to 5000 nM.
In the case of `CC(C)S(=O)(=O)c1ccc(-c2cnc3[nH]cc(C(=O)Nc4ccc(F)cc4)c3n2)cc1` [Compound I-72, N-(4-fluorophenyl)-2-(4-isopropylsulfonylphenyl)-5H-pyrrolo[2,3-b]pyrazine-7-carboxamide], for the setting “class symbols”, the Ki fell in the range of 100 to 500 nM.
Same read-out and setting: the figure for `CC(C)S(=O)(=O)c1ccc(-c2cnc3[nH]cc(C(=O)N4CCCc5ccccc54)c3n2)cc1` [Compound I-27, 3,4-dihydro-2H-quinolin-1-yl-[2-(4-isopropylsulfonylphenyl)-5H-pyrrolo[2,3-b]pyrazin-7-yl]methanone] is 100 to 500 nM.
Still for that read-out and setting: the figure for `CC(c1cccc(Cl)c1)N(C)C(=O)c1c[nH]c2ncc(-c3ccc(S(=O)(=O)C(C)C)cc3)nc12` (stereo not drawn) [Compound I-126, N-[1-(3-chlorophenyl)ethyl]-2-(4-isopropylsulfonylphenyl)-N-methyl-5H-pyrrolo[2,3-b]pyrazine-7-carboxamide] is less than 100 nM.
For `CC(C)S(=O)(=O)c1ccc(-c2cnc3[nH]cc(C(=O)NCc4cccc(Cl)c4)c3n2)cc1` [Compound I-46, N-[(3-chlorophenyl)methyl]-2-(4-isopropylsulfonylphenyl)-5H-pyrrolo[2,3-b]pyrazine-7-carboxamide], the Ki under setting [1] was more than 250 nM.
Turning to `Cc1cccc(Cl)c1CNC(=O)c1c[nH]c2ncc(-c3ccc(S(=O)(=O)C(C)C)cc3)nc12` [Compound I-54, N-[(2-chloro-6-methyl-phenyl)methyl]-2-(4-isopropylsulfonylphenyl)-5H-pyrrolo[2,3-b]pyrazine-7-carboxamide], where the note is “class symbols”, the Ki was less than 100 nM.
Regarding `CC(C)S(=O)(=O)c1ccc(-c2cnc3[nH]cc(C(=O)NCCN(C)C)c3n2)cc1` [Compound I-21, N-(2-dimethylaminoethyl)-2-(4-isopropylsulfonylphenyl)-5H-pyrrolo[2,3-b]pyrazine-7-carboxamide], the Ki (class symbols) was in the range of 500 to 5000 nM.
Consider `CC(C)S(=O)(=O)c1ccc(-c2cnc3[nH]cc(C(=O)NC4(CO)CC4)c3n2)cc1` [Compound I-113, N-[1-(hydroxymethyl)cyclopropyl]-2-(4-isopropylsulfonylphenyl)-5H-pyrrolo[2,3-b]pyrazine-7-carboxamide], for which, under setting [1], the Ki was more than 1000 nM.
On to `CCN(C(=O)c1c[nH]c2ncc(-c3ccc(S(=O)(=O)C(C)C)cc3)nc12)c1ccccc1` [Compound I-9, N-ethyl-2-(4-isopropylsulfonylphenyl)-N-phenyl-5H-pyrrolo[2,3-b]pyrazine-7-carboxamide], for which, under “class symbols”, the Ki fell in the range of 500 to 5000 nM.
Turning to `CC(C)S(=O)(=O)c1ccc(-c2cnc3[nH]cc(C(=O)N4CCC(N(C)C)CC4)c3n2)cc1` [Compound I-99, [4-(dimethylamino)-1-piperidyl]-[2-(4-isopropylsulfonylphenyl)-5H-pyrrolo[2,3-b]pyrazin-7-yl]methanone], under setting [1], the Ki is more than 4000 nM.
On to `CC(C)S(=O)(=O)c1ccc(-c2cnc3[nH]cc(C(=O)NC(CCO)c4cccc(N)c4)c3n2)cc1` (stereo not drawn) [Compound I-79, N-[1-(3-aminophenyl)-3-hydroxy-propyl]-2-(4-isopropylsulfonylphenyl)-5H-pyrrolo[2,3-b]pyrazine-7-carboxamide], for which the Ki (class symbols) is 100 to 500 nM.
Consider `CC(C)S(=O)(=O)c1ccc(-c2cnc3[nH]cc(C(=O)NCC4(N)CCCCC4)c3n2)cc1` [Compound I-90, N-[(1-aminocyclohexyl)methyl]-2-(4-isopropylsulfonylphenyl)-5H-pyrrolo[2,3-b]pyrazine-7-carboxamide], for which the Ki under setting [1] is more than 250 nM.
As for `CC(C)S(=O)(=O)c1ccc(-c2cnc3[nH]cc(C(=O)Nc4cccc(CO)c4)c3n2)cc1` [Compound I-26, N-[3-(hydroxymethyl)phenyl]-2-(4-isopropylsulfonylphenyl)-5H-pyrrolo[2,3-b]pyrazine-7-carboxamide], the Ki (class symbols) was less than 100 nM.
Same read-out and setting: the result for `CC(C)S(=O)(=O)c1ccc(-c2cnc3[nH]cc(C(=O)N4CCC(O)C4)c3n2)cc1` (stereo not drawn) [Compound I-28, (3-hydroxypyrrolidin-1-yl)-[2-(4-isopropylsulfonylphenyl)-5H-pyrrolo[2,3-b]pyrazin-7-yl]methanone] reads 500 to 5000 nM; that for `CC(C)S(=O)(=O)c1ccc(-c2cnc3[nH]cc(C(=O)NC[C@H](O)c4ccccc4)c3n2)cc1` [Compound I-37, N-[(2R)-2-hydroxy-2-phenyl-ethyl]-2-(4-isopropylsulfonylphenyl)-5H-pyrrolo[2,3-b]pyrazine-7-carboxamide], less than 100 nM; that for `CC(C)S(=O)(=O)c1ccc(-c2cnc3[nH]cc(C(=O)N[C@@H]4c5ccccc5C[C@@H]4O)c3n2)cc1` [Compound I-65, N-[(1R,2S)-2-hydroxyindan-1-yl]-2-(4-isopropylsulfonylphenyl)-5H-pyrrolo[2,3-b]pyrazine-7-carboxamide], 500 to 5000 nM.
On to `CC(C)S(=O)(=O)c1ccc(-c2cnc3[nH]cc(C(=O)N(C)c4ccccc4)c3n2)cc1` [Compound I-3, 2-(4-isopropylsulfonylphenyl)-N-methyl-N-phenyl-5H-pyrrolo[2,3-b]pyrazine-7-carboxamide], for which the Ki under setting [1] was more than 250 nM.
Turning to `Cc1cccc(C)c1CNC(=O)c1c[nH]c2ncc(-c3ccc(S(=O)(=O)C(C)C)cc3)nc12` [Compound I-89, N-[(2,6-dimethylphenyl)methyl]-2-(4-isopropylsulfonylphenyl)-5H-pyrrolo[2,3-b]pyrazine-7-carboxamide], where the note is “class symbols”, the Ki is less than 100 nM.
The same measure, in the same setting: the result for `CCC[C@@H](CO)NC(=O)c1c[nH]c2ncc(-c3ccc(S(=O)(=O)C(C)C)cc3)nc12` [Compound I-112, N-[(1S)-1-(hydroxymethyl)butyl]-2-(4-isopropylsulfonylphenyl)-5H-pyrrolo[2,3-b]pyrazine-7-carboxamide] reads less than 100 nM; that for `CC[C@@H](CO)NC(=O)c1c[nH]c2ncc(-c3ccc(S(=O)(=O)C(C)C)cc3)nc12` [Compound I-117, N-[(1S)-1-(hydroxymethyl)propyl]-2-(4-isopropylsulfonylphenyl)-5H-pyrrolo[2,3-b]pyrazine-7-carboxamide], 100 to 500 nM; that for `CC(C)S(=O)(=O)c1ccc(-c2cnc3[nH]cc(C(=O)NCc4ccc(N5CCOCC5)cc4)c3n2)cc1` [Compound I-38, 2-(4-isopropylsulfonylphenyl)-N-[(4-morpholinophenyl)methyl]-5H-pyrrolo[2,3-b]pyrazine-7-carboxamide], 500 to 5000 nM.
In the case of `Cc1ccccc1CNC(=O)c1c[nH]c2ncc(-c3ccc(S(=O)(=O)C(C)C)cc3)nc12` [Compound I-15, 2-(4-isopropylsulfonylphenyl)-N-(o-tolylmethyl)-5H-pyrrolo[2,3-b]pyrazine-7-carboxamide], under “class symbols”, the Ki is less than 100 nM.
